Patent US20250034150A1, “BTK INHIBITORS” (BIOGEN MA INC., priority 2021, published 2025)
Counter-ions that a name gives are not always drawn. Like-named read-outs stand apart in the source and are kept apart here.

Assays:
[1] = test system: CD69 expression on CD19+ B cells in human whole blood; test: In Vitro whole blood CD69 Assay; format: cell-based; conditions: B-cell, read-out: In Vitro HWB CD69 Assay IC50 Score
In short: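 Heparinized healthy-donor human whole blood was preincubated with compound (0.1% DMSO) for 30 min at 37 °C. Stimulation used 0.1 µg/mL anti-IgD-dextran or 20 µg/mL rabbit F(ab′)2 anti-IgD for 18–22 h at 37 °C. CD69 on gated CD19+ B cells was then measured by flow cytometry.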

BTK = target: T1, BTK (Homo sapiens, UniProt Q06187); test: In Vitro BTK Kinase Assay: Btk-PolyGAT-LS Assay; format: biochemical; conditions: active BTK enzyme 0.25 nM, polyGAT 100 nM, 30 minutes, TRF readout; read-out: In Vitro BTK Kinase Assay IC50 Score
T1 construct: purchased Upstate 14-552
T1 sequence (Q06187 whole entry): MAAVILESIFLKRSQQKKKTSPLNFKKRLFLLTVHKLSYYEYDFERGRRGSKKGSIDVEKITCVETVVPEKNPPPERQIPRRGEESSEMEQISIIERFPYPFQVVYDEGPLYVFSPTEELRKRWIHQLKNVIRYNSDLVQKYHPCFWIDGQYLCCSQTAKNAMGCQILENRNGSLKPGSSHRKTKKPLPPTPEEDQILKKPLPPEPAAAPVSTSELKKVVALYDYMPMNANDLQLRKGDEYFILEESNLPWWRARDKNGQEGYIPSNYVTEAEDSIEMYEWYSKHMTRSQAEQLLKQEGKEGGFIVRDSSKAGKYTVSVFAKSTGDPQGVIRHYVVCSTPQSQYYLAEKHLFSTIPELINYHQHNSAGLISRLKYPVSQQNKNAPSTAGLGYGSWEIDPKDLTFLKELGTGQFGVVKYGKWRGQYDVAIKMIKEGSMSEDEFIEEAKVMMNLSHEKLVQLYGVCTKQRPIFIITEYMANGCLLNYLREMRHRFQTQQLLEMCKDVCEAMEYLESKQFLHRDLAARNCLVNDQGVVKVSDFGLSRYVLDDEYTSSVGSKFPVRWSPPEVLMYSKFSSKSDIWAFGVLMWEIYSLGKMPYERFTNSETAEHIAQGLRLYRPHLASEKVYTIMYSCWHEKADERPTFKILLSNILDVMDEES
In short: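 IC50 values came from a four-parameter fit, with DMSO controls as 100% activity and EDTA controls as 0%. The signal was TR-FRET from a Tb-PY20 antibody binding fluorescein-polyGAT (100 nM) phosphorylated by 0.25 nM BTK. Kinase reactions used 10 μM ATP, a 4-fold compound titration, and ran 30 minutes before EDTA stop.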

[2] = human heparinized whole blood, anti-human IgD stimulation overnight, CD19+ B cells, flow cytometry

SMILES	IC50 [1, 2]	IC50 (BTK)	IC50 ([1]; Homo sapiens)
Cc1cc(-c2nc(N3CCN(C)CC3)cn3nccc23)ccc1CNC(=O)c1cn(C(C)(C)C)nn1 [Example 121, 1-(tert-butyl)-N-(2-methyl-4-(6-(4-methylpiperazin-1-yl)pyrazolo[1,5-a]pyrazin-4-yl)benzyl)-1H-1,2,3-triazole-4-carboxamide trifluoroacetate]	1 to 10 µM	0.01 to 1 µM	
COCCOc1cn2nccc2c(-c2ccc(CNC(=O)c3cn(C(C)(C)C)nn3)c(C)c2)n1 [Example 122, 1-(tert-butyl)-N-(4-(6-(2-methoxyethoxy)pyrazolo[1,5-a]pyrazin-4-yl)-2-methylbenzyl)-1H-1,2,3-triazole-4-carboxamide]	< 1 µM	0.001 to 0.01 µM	
CN1CCN(c2cn3nccc3c(-c3ccc(CNC(=O)c4cn(C(C)(C)C)nn4)c(F)c3)n2)CC1 [Example 128, 1-(tert-butyl)-N-(2-fluoro-4-(6-(4-methylpiperazin-1-yl)pyrazolo[1,5-a]pyrazin-4-yl)benzyl)-1H-1,2,3-triazole-4-carboxamide trifluoroacetate]	1 to 10 µM	0.01 to 1 µM	
Cc1cc(-c2nc(N3CCN(C)CC3)cn3nccc23)ccc1CNC(=O)c1nnn(C(C)(C)C)n1 [Example 130]	1 to 10 µM	0.001 to 0.01 µM	
COCCOc1cn2nccc2c(-c2ccc(CNC(=O)c3noc(C(C)(C)C)n3)c(C)c2)n1 [Example 132, 5-(tert-butyl)-N-(4-(6-(2-methoxyethoxy)pyrazolo[1,5-a]pyrazin-4-yl)-2-methylbenzyl)-1,2,4-oxadiazole-3-carboxamide]	1 to 10 µM	0.001 to 0.01 µM	
COCCOc1cn2nccc2c(-c2ccc(CNC(=O)c3nc(C4(C)CC4)no3)c(C)c2)n1 [Example 133, N-(4-(6-(2-methoxyethoxy)pyrazolo[1,5-a]pyrazin-4-yl)-2-methylbenzyl)-3-(1-methylcyclopropyl)-1,2,4-oxadiazole-5-carboxamide]	1 to 10 µM	0.001 to 0.01 µM	
Cn1cc(-c2cn3nccc3c(N3CCC(CNC(=O)c4noc(C(C)(C)C)n4)CC3)n2)cn1 [Example 136, 5-(tert-butyl)-N-((1-(6-(1-methyl-1H-pyrazol-4-yl)pyrazolo[1,5-a]pyrazin-4-yl)piperidin-4-yl)methyl)-1,2,4-oxadiazole-3-carboxamide]		0.001 to 0.01 µM	< 1 µM
Cn1cc(-c2cn3nccc3c(N3CCC(CNC(=O)c4noc(C5(C)CC5)n4)CC3)n2)cn1 [Example 137, N-((1-(6-(1-methyl-1H-pyrazol-4-yl)pyrazolo[1,5-a]pyrazin-4-yl)piperidin-4-yl)methyl)-5-(1-methylcyclopropyl)-1,2,4-oxadiazole-3-carboxamide]	1 to 10 µM	0.001 to 0.01 µM	
Cn1cc(-c2cn3nccc3c(N3CCC(CNC(=O)c4cn(C(C)(C)C)nn4)CC3)n2)cn1 [Example 138, 1-(tert-butyl)-N-((1-(6-(1-methyl-1H-pyrazol-4-yl)pyrazolo[1,5-a]pyrazin-4-yl)piperidin-4-yl)methyl)-1H-1,2,3-triazole-4-carboxamide]	1 to 10 µM	0.001 to 0.01 µM	
CC1CC(CNC(=O)c2noc(C3(C)CC3)n2)CCN1c1nc(-c2cnn(C)c2)cn2nccc12 (stereo not shown) [Example 139, N-((2-methyl-1-(6-(1-methyl-1H-pyrazol-4-yl)pyrazolo[1,5-a]pyrazin-4-yl)piperidin-4-yl)methyl)-5-(1-methylcyclopropyl)-1,2,4-oxadiazole-3-carboxamide]	1 to 10 µM	0.001 to 0.01 µM	
CC1CN(c2nc(-c3cnn(C)c3)cn3nccc23)CCC1CNC(=O)c1noc(C(C)(C)C)n1 (stereo not shown) [Example 144, 5-(tert-butyl)-N-((3-methyl-1-(6-(1-methyl-1H-pyrazol-4-yl)pyrazolo[1,5-a]pyrazin-4-yl)piperidin-4-yl)methyl)-1,2,4-oxadiazole-3-carboxamide]		0.001 to 0.01 µM	< 1 µM
